From ChEMBL document CHEMBL5608180, “DNA G-quadruplexes in the genome of Trypanosoma cruzi as potential therapeutic targets for Chagas disease: Dithienylethene ligands as effective antiparasitic agents” (Eur J Med Chem, 2024)
pIC50: −log10 of the molar value. Activity calls are given as the source filed them. The calls are words filed in the database; no cut-off is given here.

Assays:
[1] = system: Trypanosoma cruzi; assay: Antiparasitic activity against epimastigote form of Trypanosoma cruzi Y(TcII) assessed as inhibition of parasite growth incubated for 96 hrs followed by incubation with resazurin for 4 to 6 hrs by resazurin dye based fluorescence analysis; assay type: functional, organism-based
[2] = system: Trypanosoma cruzi; assay: Antiparasitic activity against epimastigote form of Trypanosoma cruzi SOL(TcV) assessed as inhibition of parasite growth incubated for 96 hrs followed by incubation in dark with resazurin for 4 to 6 hrs by resazurin dye based fluorescence analysis; assay type: functional, organism-based
[3] = system: Trypanosoma cruzi; assay: Antiparasitic activity against epimastigote form of Trypanosoma cruzi BM Lopez (TcIa) assessed as inhibition of parasite growth incubated for 96 hrs followed by incubation with resazurin for 4 to 6 hrs by resazurin dye based fluorescence analysis; assay type: functional, organism-based
[4] = system: Trypanosoma cruzi; assay: Antiparasitic activity against epimastigote form of Trypanosoma cruzi DA (TcI) assessed as inhibition of parasite growth incubated for 96 hrs followed by incubation with resazurin for 4 to 6 hrs by resazurin dye based fluorescence analysis; assay type: functional, organism-based
[5] = Cytotoxicity against human MRC5 cells; assay type: toxicity, cell-based
[6] = Selectivity index, ratio of IC50 for cytotoxicity against human MRC5 cells to IC50 for antiparasitic activity against epimastigote form of Trypanosoma cruzi Y (TcII); assay type: toxicity, cell-based; conditions: read-out: Ratio IC50
[7] = Selectivity index, ratio of IC50 for cytotoxicity against human MRC5 cells to IC50 for antiparasitic activity against epimastigote form of Trypanosoma cruzi SOL (TcV); assay type: toxicity, cell-based; conditions: read-out: Ratio IC50
[8] = Selectivity index, ratio of IC50 for cytotoxicity against human MRC5 cells to IC50 for antiparasitic activity against epimastigote form of Trypanosoma cruzi BM Lopez (TcIa); assay type: toxicity, cell-based; conditions: read-out: Ratio IC50
[9] = Selectivity index, ratio of IC50 for cytotoxicity against human MRC5 cells to IC50 for antiparasitic activity against epimastigote form of Trypanosoma cruzi DA (TcI); assay type: toxicity, cell-based; conditions: read-out: Ratio IC50
[10] = system: Trypanosoma cruzi; assay: Antiparasitic activity against trypomastigote form of Trypanosoma cruzi SOL (MHOM/ES/2008/SOL; DTU V) assessed as inhibition of parasite growth incubated for 96 hrs followed by incubation in dark with resazurin for 4 to 6 hrs by resazurin dye based fluorescence analysis; assay type: functional, organism-based
[11] = Selectivity index, ratio of IC50 for cytotoxicity against human MRC5 cells to IC50 for antiparasitic activity against trypomastigote form of Trypanosoma cruzi SOL (TcV); assay type: toxicity, cell-based; conditions: read-out: Ratio IC50
[12] = system: Quadruplex DNA; assay: Stabilization of Trypanosoma cruzi G-quadruplex RCr DNA (FAM-5'-GGGGACGGGAATGGGGGTGCATGAGGGG-3'-TAMRA) assessed as change in apparent melting temperature at 5 uM by FRET melting analysis; assay type: nucleic-acid assay
[13] = system: Quadruplex DNA; assay: Stabilization of Trypanosoma cruzi G-quadruplex MCr DNA (FAM-5'-GTGGAGGGGGAGGGTCATGGGG-3'-TAMRA) assessed as change in apparent melting temperature at 5 uM by FRET melting analysis; assay type: nucleic-acid assay
[14] = system: Quadruplex DNA; assay: Stabilization of Trypanosoma cruzi G-quadruplex TCr DNA (FAM-5'-GGGAGGGACGGATGGGCAGAAACGGG-3'-TAMRA) assessed as change in apparent melting temperature at 5 uM by FRET melting analysis; assay type: nucleic-acid assay
[15] = system: Quadruplex DNA; assay: Stabilization of human telomere G-quadruplex F21T DNA (FAM-5'-GGGTTAGGGTTAGGGTTAGGG-3'-TAMRA) assessed as change in apparent melting temperature at 5 uM by FRET melting analysis; assay type: nucleic-acid assay
[16] = system: Quadruplex DNA; assay: Stabilization of human proto-oncogene G-quadruplex MYC DNA (FAM-5'-TTGAGGGTGGGTAGGGTGGGTAA-3'-TAMRA) assessed as change in apparent melting temperature at 5 uM by FRET melting analysis; assay type: nucleic-acid assay
[17] = system: dsDNA; assay: Binding affinity to human duplex FdxT DNA (FAM-5'-TATAGCTAT-peg-TATAGCTATA-3'-TAMRA) at 5 uM by FRET melting analysis; assay type: nucleic-acid assay
[18] = system: Quadruplex DNA; assay: Stabilization of Trypanosoma cruzi G-quadruplex RCr DNA (FAM-5'-GGGGACGGGAATGGGGGTGCATGAGGGG-3'-TAMRA) at 10 uM by FRET melting analysis; assay type: nucleic-acid assay
[19] = system: Quadruplex DNA; assay: Stabilization of human telomere G-quadruplex F21T DNA (FAM-5'-GGGTTAGGGTTAGGGTTAGGG-3'-TAMRA) at 5 uM in presence of 1 to 10 uM double stranded ds26 DNA by FRET melting analysis; assay type: nucleic-acid assay
[20] = system: Quadruplex DNA; assay: Stabilization of Trypanosoma cruzi G-quadruplex RCr DNA (FAM-5'-GGGGACGGGAATGGGGGTGCATGAGGGG-3'-TAMRA) at 5 uM in presence of 1 to 10 uM double stranded ds26 DNA by FRET melting analysis; assay type: nucleic-acid assay
[21] = system: Quadruplex DNA; assay: Binding affinity to Trypanosoma cruzi G-quadruplex RCr DNA (FAM-5'-GGGGACGGGAATGGGGGTGCATGAGGGG-3'-TAMRA) assessed as broadening of imino proton signals with delta shift at 1 equiv. by 1H-NMR analysis; assay type: nucleic-acid assay
[22] = system: Quadruplex DNA; assay: Binding affinity to Trypanosoma cruzi G-quadruplex MCr DNA (FAM-5'-GTGGAGGGGGAGGGTCATGGGG-3'-TAMRA) assessed as broadening of imino proton signals at 1 equiv. by 1H-NMR analysis; assay type: nucleic-acid assay
[23] = system: Quadruplex DNA; assay: Binding affinity to Trypanosoma cruzi G-quadruplex TCr DNA (FAM-5'-GGGAGGGACGGATGGGCAGAAACGGG-3'-TAMRA) assessed as broadening of imino proton signals at 1 equiv. by 1H-NMR analysis; assay type: nucleic-acid assay
[24] = system: Quadruplex DNA; assay: Binding affinity to Trypanosoma cruzi G-quadruplex RCr DNA (FAM-5'-GGGGACGGGAATGGGGGTGCATGAGGGG-3'-TAMRA) assessed as increase in melting temperature at DNA:compound concentration ratio of 1:2 by CD melting assay; assay type: nucleic-acid assay
[25] = system: Quadruplex DNA; assay: Binding affinity to Trypanosoma cruzi G-quadruplex MCr DNA (FAM-5'-GTGGAGGGGGAGGGTCATGGGG-3'-TAMRA) at DNA:compound concentration ratio of 1:1 to 1:2 by CD melting assay; assay type: nucleic-acid assay
[26] = system: Quadruplex DNA; assay: Binding affinity to Trypanosoma cruzi G-quadruplex RCr DNA (FAM-5'-GGGGACGGGAATGGGGGTGCATGAGGGG-3'-TAMRA) assessed as decrease in absorption with shift to higher wavelength at 25 uM by UV-Vis spectrophotometric analysis; assay type: nucleic-acid assay
[27] = system: Quadruplex DNA; assay: Binding affinity to Trypanosoma cruzi G-quadruplex MCr DNA (FAM-5'-GTGGAGGGGGAGGGTCATGGGG-3'-TAMRA) assessed as decrease in absorption with shift to higher wavelength at 25 uM by UV-Vis spectrophotometric analysis; assay type: nucleic-acid assay
[28] = system: dsDNA; assay: Binding affinity to double stranded ds26 DNA (unknown origin) assessed as decrease in absorbance with shift to lower wavelength at 25 uM by UV-Vis spectrophotometric analysis; assay type: nucleic-acid assay
[29] = Drug uptake in epimastigote form of Trypanosoma cruzi BM Lopez at 20 uM measured after 2 hrs by fluorescence microscopy; assay type: ADME
[30] = Drug uptake in epimastigote form of Trypanosoma cruzi BM Lopez assessed as localization in kinetoplast and nucleus at 20 uM measured after 4 hrs by fluorescence microscopy; assay type: ADME
[31] = Drug uptake in epimastigote form of Trypanosoma cruzi BM Lopez assessed as localization in kinetoplast and nucleus at 20 uM measured after 24 hrs by fluorescence microscopy; assay type: ADME
[32] = system: Trypanosoma cruzi; assay: Potency index, ratio of Benznidazole IC50 to test compound IC50 for antiparasitic activity against trypomastigote form of Trypanosoma cruzi SOL (MHOM/ES/2008/SOL; DTU V) by resazurin dye based fluorescence analysis; assay type: functional

pIC50 [1]: 4.71
pIC50 [2]: 4.68
pIC50 [3]: 4.52
pIC50 [4]: 4.67
pIC50 [10]: 5.82
ΔTm [12]: 17 °C
ΔTm [13]: 14 °C
ΔTm [14]: 17 °C
ΔTm [15]: 17 °C
ΔTm [16]: 17 °C
Activity [17]: inactive
Activity [18]: Active
Activity [19]: Active
Activity [20]: Active
Activity [21]: Active
Activity [22]: Active
Activity [23]: Active
ΔTm [24]: 6.98 °C
Activity [25]: Active
Activity [26]: Active
Activity [27]: Active
Activity [28]: inactive
Drug uptake [29]: Active
Drug uptake [30]: Active
Drug uptake [31]: Active
Structure (SMILES): Cc1sc(-c2cccc3cc[n+](C)cc23)cc1C1=C(c2cc(-c3cccc4cc[n+](C)cc34)sc2C)CCC1.[I-].[I-]
pIC50 [5]: 4.21
selectivity ratio [6]: 3.1
selectivity ratio [7]: 2.9
selectivity ratio [8]: 2
selectivity ratio [9]: 2.9
selectivity ratio [11]: 40.9
Ratio IC50 [32]: 38
